Measured values: PubChem BioAssay (NCI)
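Each compound was tested at five concentrations against cells in 96-well plates for 48 hours. TGI denotes the concentration required for complete inhibition of growth.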

Columns and labels:
Assay in all cases: NCI-60 cell line screen, 48 h
786-0 renal = test system: 786-0 renal
HS 578T breast = test system: HS 578T breast
IGROV1 ovarian = test system: IGROV1 ovarian
K-562 leukemia = test system: K-562 leukemia
KM12 colon = test system: KM12 colon
NCI-H522 lung = test system: NCI-H522 lung
OVCAR-5 ovarian = test system: OVCAR-5 ovarian
SF-539 CNS = test system: SF-539 CNS
SK-MEL-2 melanoma = test system: SK-MEL-2 melanoma
UO-31 renal = test system: UO-31 renal

SMILES | TGI (786-0 renal) | TGI (HS 578T breast) | TGI (IGROV1 ovarian) | TGI (K-562 leukemia) | TGI (KM12 colon) | TGI (NCI-H522 lung) | TGI (OVCAR-5 ovarian) | TGI (SF-539 CNS) | TGI (SK-MEL-2 melanoma) | TGI (UO-31 renal)
CC(=O)O[C@H]1[C@@H](N2CCOCC2)C[C@H]2[C@@H]3CC=C4C[C@@H](N5CCCC5)CC[C@]4(C)[C@H]3CC[C@@]21C | > 100 µM | > 100 µM | > 100 µM | > 100 µM | > 100 µM | > 100 µM | > 100 µM | > 100 µM | > 100 µM | > 100 µM
CC(=O)OCC1OC(OCCCOP(=O)(OCCC#N)OCC2OC(n3cnc4c(N)ncnc43)C(OC(=O)c3ccccc3)C2OC(=O)c2ccccc2)C(OC(C)=O)C(OC(C)=O)C1OC(C)=O (stereo not given) | > 100 µM | > 100 µM | > 100 µM | > 100 µM | > 100 µM | > 100 µM | > 100 µM | > 100 µM | > 100 µM | > 100 µM
COc1ccc(-c2nc3ccccc3c(=O)[nH]2)cc1 | > 100 µM | 31.9 µM | > 100 µM | > 100 µM | > 100 µM | > 100 µM | > 100 µM | > 100 µM | > 100 µM | > 100 µM
Cc1nn2c(=O)c([N+](=O)[O-])c(/C=C/c3ccc(F)cc3)nc2s1 | 20.9 µM | 28.6 µM | 22.6 µM | > 31.6 µM | 16.3 µM | 18 µM | 18 µM | 17.9 µM | 19.3 µM | 16.2 µM
CSc1c(C(C)=O)c(O)n(-c2ccc(C)cc2)c(=O)c1C#N | > 100 µM | > 100 µM | > 100 µM | > 100 µM | > 100 µM | > 100 µM | > 100 µM | > 100 µM | > 100 µM | > 100 µM
O=c1cc(NNc2cccc3ccccc23)[nH]c(=O)[nH]1 | 18.6 µM | 68.7 µM | 29.2 µM | > 100 µM | 29.9 µM | 28.7 µM | 31.1 µM | 29 µM | 28.4 µM | 29.8 µM
COc1cc(/C=C(\C)[N+](=O)[O-])cc(OC)c1 | 8.95 µM | 68.6 µM | 17.6 µM | 5.52 µM | 36.8 µM | 3.64 µM | 36.1 µM | 16.9 µM | 34.9 µM | 29.1 µM
COC(=O)[C@@H]1c2c(oc3cc(CO)cc(O)c3c2=O)C=C[C@H]1O | 12 µM | 55.8 µM | 26.2 µM | > 100 µM | 14.8 µM | 3.64 µM | 22.8 µM | 9.41 µM | 28.9 µM | 14.2 µM
NCCCN(CCCCN(CCCN)CCCc1ccccc1)CCCc1ccccc1 | 2.91 µM | 4.66 µM | 8.88 µM | 3.57 µM | 6.43 µM | 7.17 µM | 24.9 µM | 3.55 µM | 3.25 µM | 5.66 µM
Cc1ccc(C2=CC(=O)/C(=C\C(=O)c3ccc(Br)cc3)O2)c(C)c1 | 16 µM | 61.8 µM | 40.4 µM | 16.4 µM | 48.6 µM | 3.38 µM | 56.7 µM | 57.1 µM | > 100 µM | 27.7 µM
Cc1nc2ccc(NCCN(C)C)c3c(=O)c4ccccc4n1c23 | 15.7 µM | 9.15 µM | 16.6 µM | > 54.8 µM | 13.1 µM | 9.91 µM | 21 µM | 16 µM | 18.8 µM | 11.1 µM
O=C(NNC(=O)c1ccco1)c1ccco1 | > 100 µM | > 100 µM | > 100 µM | > 100 µM | > 100 µM | > 100 µM | > 100 µM | > 100 µM | > 100 µM | > 100 µM
COC(=O)CN1CCN(c2cccc3c2CCCC3)CC1 | > 100 µM | > 100 µM | > 100 µM | > 100 µM | > 100 µM | > 100 µM | > 100 µM | > 100 µM | > 100 µM | > 100 µM
CC(=O)c1csc2c1C(=O)c1ccccc1C2=O | > 22.3 µM | 7.11 µM | 6.42 µM | > 100 µM | 3.68 µM | 4.1 µM | 5.45 µM | 5.65 µM | 10.6 µM | 6.13 µM
